Experimental data taken from the supplement of paper PMC10307832.

How the values were obtained:
Assay in all cases: relative viability (nuclei count vs DMSO), 5 days (fraction); higher = more cells survive
QS11 + Phenformin = compound: C1CC2=C(C1)C=C(C=C2)OC3=NC(=C4C(=N3)N(C=N4)CC5=CC=C(C=C5)C6=CC=CC=C6)N[C@@H](CC7=CC=CC=C7)CO [QS11] + N=C(N)NC(=N)NCCc1ccccc1 [Phenformin] (partner 250 µM)
In short: (§1)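 Lung cancer cell lines in 1536-well plates got either a single drug or a fixed anchor-drug dose together with five library-drug doses (not always all listed) in √10 steps, by pin tool, on the day after seeding. Nuclei were counted after 5 days, and relative viability is the treated-to-vehicle ratio of nuclei counts. Values are medians of duplicate plates.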

Darinaparsin + Dasatinib = compound: C[As](C)SC[C@H](NC(=O)CC[C@H](N)C(=O)O)C(=O)NCC(=O)O [Darinaparsin] + Cc1nc(Nc2ncc(C(=O)Nc3c(C)cccc3Cl)s2)cc(N2CCN(CCO)CC2)n1 [Dasatinib] (partner 0.075 µM)
In short: as §1

QS11 + Linsitinib = compound: C1CC2=C(C1)C=C(C=C2)OC3=NC(=C4C(=N3)N(C=N4)CC5=CC=C(C=C5)C6=CC=CC=C6)N[C@@H](CC7=CC=CC=C7)CO [QS11] + C[C@]1(O)C[C@@H](c2nc(-c3ccc4ccc(-c5ccccc5)nc4c3)c3c(N)nccn32)C1 [Linsitinib] (partner 1 µM)
In short: as §1

QS11 + Bortezomib = compound: C1CC2=C(C1)C=C(C=C2)OC3=NC(=C4C(=N3)N(C=N4)CC5=CC=C(C=C5)C6=CC=CC=C6)N[C@@H](CC7=CC=CC=C7)CO [QS11] + CC(C)C[C@H](NC(=O)[C@H](Cc1ccccc1)NC(=O)c1cnccn1)B(O)O [Bortezomib] (partner 0.002 µM)
In short: as §1

Cell Line	relative viability (QS11 + Phenformin; first compound 0.08 µM)	relative viability (QS11 + Phenformin; first compound 0.253 µM)	relative viability (QS11 + Phenformin; first compound 0.8 µM)	relative viability (QS11 + Phenformin; first compound 2.53 µM)	relative viability (QS11 + Phenformin; first compound 8 µM)	relative viability (Darinaparsin + Dasatinib; first compound 0.08 µM)	relative viability (Darinaparsin + Dasatinib; first compound 0.8 µM)	relative viability (Darinaparsin + Dasatinib; first compound 2.53 µM)	relative viability (Darinaparsin + Dasatinib; first compound 8 µM)	relative viability (QS11 + Linsitinib; first compound 0.08 µM)	relative viability (QS11 + Linsitinib; first compound 0.253 µM)	relative viability (QS11 + Linsitinib; first compound 0.8 µM)	relative viability (QS11 + Linsitinib; first compound 2.53 µM)	relative viability (QS11 + Linsitinib; first compound 8 µM)	relative viability (QS11 + Bortezomib; first compound 0.08 µM)	relative viability (QS11 + Bortezomib; first compound 0.253 µM)	relative viability (QS11 + Bortezomib; first compound 0.8 µM)	relative viability (QS11 + Bortezomib; first compound 2.53 µM)	relative viability (QS11 + Bortezomib; first compound 8 µM)
UMC-11	0.325	0.287	0.302	0.324	0.24	0.711	0.473	0.401	0.578	1.06	1.16	1.08	1.17	1.24	0.668	0.851	0.816	1.01	0.68
LCLC-103H	0.315	0.403	0.341	0.342	0.382	0.577	0.449	0.409	0.533	1.08	1.1	0.74	1.21	1.09	1.04	1.1	0.811	1.07	0.891
LU99A	0.768	0.975	1.07	0.827	0.869	0.627	0.59	0.473	0.519	0.529	0.561	0.555	0.465	0.38	0.878	1.37	1.17	1.11	0.706
LXF-289	0.468	0.509	0.486	0.495	0.541	0.228	0.204	0.164	0.213	0.977	1.01	0.681	0.896	0.72	1	0.996	0.791	0.819	0.614
EPLC-272H	–	0.327	0.312	0.287	0.304	–	0.275	0.223	0.371	1.16	1.47	1.12	1.09	1.23	0.954	0.947	0.81	0.946	0.798
LOU-NH91	0.685	0.62	0.657	0.67	0.663	0.632	0.512	0.49	0.622	0.901	0.862	–	0.891	0.876	0.494	0.491	0.417	0.488	0.437
HCC-44	0.208	0.206	0.25	0.158	0.157	–	–	–	–	0.79	0.647	0.532	0.549	0.531	0.885	0.76	0.681	0.766	0.697
NCI-H1651	0.377	0.384	0.305	0.374	0.343	0.51	0.476	0.365	0.416	1.12	0.987	0.813	0.939	0.581	0.954	1.06	0.804	0.959	0.994
NCI-H1915	0.362	0.369	–	0.376	0.348	0.329	0.32	0.317	0.323	1.05	1.14	–	1.16	1.03	0.985	1.08	–	0.967	0.979
NCI-H2009	0.466	0.498	0.459	0.419	0.416	0.307	0.32	0.266	0.233	1.25	1.26	1.13	1.03	0.95	0.999	0.898	0.739	0.802	0.755
COR-L 105	0.511	0.407	0.475	0.501	0.475	0.32	0.31	0.309	0.277	0.964	0.706	0.929	0.732	0.883	0.78	0.814	0.772	0.717	0.519
ABC-1	0.238	0.259	0.281	0.292	0.268	0.56	0.451	0.572	0.715	0.955	0.646	0.88	0.801	0.929	0.309	0.399	0.319	0.324	0.278
NCI-H1793	0.304	0.386	0.355	0.345	0.376	0.421	0.366	0.348	0.424	0.972	0.877	0.939	1.19	1.04	–	–	–	–	–
NCI-H1792	0.219	–	0.338	0.268	0.178	1.28	0.849	0.804	0.957	–	0.559	0.43	0.537	0.68	–	1.06	0.684	1.01	1.07
ChaGo-K-1	0.366	0.561	0.542	0.588	0.421	0.525	0.611	0.72	0.649	–	–	–	–	–	–	1.01	1.17	1.25	1.09
NCI-H2342	0.632	0.62	0.638	0.599	0.615	0.358	0.302	0.296	0.312	–	–	–	–	–	–	–	–	–	–
NCI-H1975	0.419	0.406	0.429	0.493	0.515	0.42	0.404	0.388	0.386	1.1	1.04	0.926	1.31	1.39	0.333	0.403	0.541	0.364	0.3
CAL-12T	0.571	0.572	0.552	0.594	0.561	0.337	0.381	0.234	0.315	1.01	0.693	0.695	0.688	0.7	0.893	0.865	0.809	1.07	1.03
